# Test results: patent US20060039986A1, “Functional material, process for producing functional material and functional member and environment modifying apparatus using the functional material” (Kabushiki Kaisha Erubu, priority 2004, published 2006)
# Experiment: Stability of ascorbic acid in water of adjusted pH (DPPH and HPLC)
# Format: physicochemical
# Conditions: 5 ppm in 25° C. water
# Description: The free ascorbic-acid concentrations were measured immediately after they were prepared so that ascorbic acid was contained in an amount of 5 ppm in 25° C. water whose pH was adjusted to 1, 3, 4, 5, 7, 9 and 11, respectively, and after 24 hours. The free ascorbic acid concentrations were measured by the above-described DPPH radical elimination method and an HPLC method. The HPLC method uses an ODS as the column, and uses an ultraviolet spectrophotometer (wavelength 254 nm) as the detecting device to carry out the measurement. The results are illustrated in FIG. 12.
smiles,measurement,setting,value
O=C1O[C@H]([C@@H](O)CO)C(O)=C1O [ascorbic acid],pH at which ascorbic acid could be stabilized more,24 hours,≤ 3
same,pH boundary at or below which the stability of ascorbic acid improved,24 hours,~5
same,stability of ascorbic acid versus pH (in words),"pH 1, 3, 4, 5, 7, 9, 11, immediately and after 24 hours (FIG. 12)",the lower the pH was the more the stability of ascorbic acid improved
